The values that follow come from patent US9428513B2, “Triazolopyrazine” (Boehringer Ingelheim International GmbH, priority 2013, dated 2016).

The term IC50 denotes the concentration needed to halve the response being measured.

The assay deals with BRD4-BD1 (Homo sapiens (Human), UniProt O60885). In words: BRD4-H4 Tetraacetylated Peptide Inhibition AlphaScreen. The class given is biochemical. The following applies: GST-BRD4-BD1 (aa 44-168) / biotinylated Acetyl-Histone H4 (Lys5, 8, 12, 16) peptide. How it is done:
Biological Methods BRD4-H4 Tetraacetylated Peptide Inhibition AlphaScreen
Compounds are diluted in serial dilution 1:5 in assay buffer from 10 mM stock in DMSO (100 μM start concentration) in white OptiPlate-384 (PerkinElmer). A mix consisting of 15 nM GST-BRD4-BD1 protein (aa 44-168) or 150 nM GST-BRD4-BD2 (aa 333-460) and 15 nM biotinylated Acetyl-Histone H4 (Lys5, 8, 12, 16) peptide is prepared in assay buffer (50 mM HEPES pH=7.4; 25 mM NaCl; 0.05% Tween 20; 0.1% bovine serum albumin (BSA); 10 mM dithiothreitol (DTT)). 6 μl of the mix is added to the compound dilutions. Subsequently, 6 μl of premixed AlphaLISA Glutathione Acceptor Beads and AlphaScreen Streptavidin Donor Beads from PerkinElmer (in assay buffer at a concentration of 10 μg/ml each) are added and the samples are incubated for 30 min at RT in the dark (shaking 300 rpm). Afterwards, the signal is measured in a PerkinElmer Envision HTS Multilabel Reader using the AlphaScreen protocol from PerkinElmer.
Each plate contains negative controls where biotinylated Acetyl-Histone H4 peptide and GST-BRD4-BD1 or GST-BRD4-BD2 are left out and replaced by assay buffer. Negative control values are entered as low basis value when using the software GraphPad Prism for calculations. Furthermore, a positive control (probe molecule JQ1+ with protein/peptide mix) is pipetted. Determination of IC50 values are carried out using GraphPad Prism 3.03 software (or updates thereof).

Molecules are shown by their SMILES.

As for `COCCn1c(-c2cn3c(C)nnc3c(NC(C)C)n2)nc2cnc(N3CCOCC3)cc21` [I-1, 6-[1-(2-methoxyethyl)-6-(morpholin-4-yl)-1H-imidazo[4,5-c]pyridin-2-yl]-3-methyl-N-(propan-2-yl)-[1,2,4]triazolo[4,3-a]pyrazin-8-amine], 32 nM corresponded to half-maximal inhibition (IC50).
In the case of `COC[C@@H](C)n1c(-c2cn3c(C)nnc3c(NC(C)C)n2)nc2cnc(N3CCOCC3)cc21` [I-2], half-maximal inhibition (IC50) required 333 nM.
Next, `COC[C@H](C)n1c(-c2cn3c(C)nnc3c(NC(C)C)n2)nc2cnc(N3CCOCC3)cc21` [I-3]: 33 nM.
Compound `Cc1nnc2c(NC(C)C)nc(-c3nc4cnc(N5CCOCC5)cc4n3CCOC(C)C)cn12` [I-4] returned an IC50 of 43 nM.
Regarding `CCOCCn1c(-c2cn3c(C)nnc3c(NC(C)C)n2)nc2cnc(N3CCOCC3)cc21` [I-5], the midpoint of inhibition, the IC50, lay at 33 nM.
Under `CNc1nc(-c2nc3cnc(N4CCOCC4)cc3n2[C@@H](C)COC)cn2c(C)nnc12` [I-6] stands 51 nM; under `CNc1nc(-c2nc3cnc(N4CCOCC4)cc3n2C[C@@H]2CCCO2)cn2c(C)nnc12` [I-7], 55 nM.
The compound `Cc1nnc2c(NC(C)C)nc(-c3nc4cnc(N5CCOCC5)cc4n3C[C@@H]3CCCO3)cn12` [I-8] had an IC50 of 55 nM.
`CNc1nc(-c2nc3cnc(N4CCOCC4)cc3n2CC2CCCO2)cn2c(C)nnc12` (stereo not shown) [I-9] returned an IC50 of 65 nM.
Next, `Cc1nnc2c(NC(C)C)nc(-c3nc4cnc(N5CCOCC5)cc4n3C[C@H]3CCCO3)cn12` [I-10]: 54 nM.
In the case of `CNc1nc(-c2nc3cnc(N4CCOCC4)cc3n2[C@H](C)COC)cn2c(C)nnc12` [I-11], the midpoint of inhibition, the IC50, lay at 549 nM.
In turn, `COC[C@H](C)n1c(-c2cn3c(C)nnc3c(NC(C)C)n2)nc2cnc(N3CCOC[C@@H]3C)cc21` [I-12] returned an IC50 of 51 nM.
Under `CNc1nc(-c2nc3cnc(N4CCOC[C@@H]4C)cc3n2[C@@H](C)COC)cn2c(C)nnc12` [I-13] stands 27 nM; under `COC[C@H](C)n1c(-c2cn3c(C)nnc3c(NC(C)C)n2)nc2ccc(C3CCOCC3)cc21` [I-14], 49 nM; under `COC[C@H](C)n1c(-c2cn3c(C)nnc3c(NC(C)C)n2)nc2ccc(C(C)C)cc21` [I-15], 123 nM.
`COC[C@H](C)n1c(-c2cn3c(C)nnc3c(NC(C)C)n2)nc2cc3c(cc21)N(C)C(=O)C3(C)C` [I-16] yielded an IC50 of 22 nM.
Under `COC[C@H](C)n1c(-c2cn3c(C)nnc3c(NC(C)C)n2)nc2cnc(N)cc21` [I-18] stands 69 nM; under `COC[C@H](C)n1c(-c2cn3c(C)nnc3c(NC(C)C)n2)nc2ccc(N3CCOC[C@@H]3C)cc21` [I-19], 58 nM.
Under `COC[C@H](C)n1c(-c2cn3c(C)nnc3c(NC(C)C)n2)nc2ccc(N)cc21` [I-20] stands 157 nM; under `COC[C@H](C)n1c(-c2cn3c(C)nnc3c(NC(C)C)n2)nc2cc3c(cc21)N(C(C)C)S(=O)(=O)C3(C)C` [I-21], 17 nM; under `Cc1nnc2c(NC3CCN(C)CC3)nc(-c3nc4cnc(N5CCOCC5)cc4n3CCOC(C)C)cn12` [I-22], 35 nM.
Under `Cc1nnc2c(NC3CCN(S(C)(=O)=O)CC3)nc(-c3nc4cnc(N5CCOCC5)cc4n3CCOC(C)C)cn12` [I-23] stands 122 nM; under `COC[C@H](C)n1c(-c2cn3c(C)nnc3c(NC(C)C)n2)nc2ccc(C3CN(C)CCO3)cc21` (stereo partly shown) [I-24], 63 nM; under `Cc1nnc2c(NC(C)C)nc(-c3nc4cnc(N5CCOC[C@@H]5C)cc4n3C(C)CC3CC3)cn12` (stereo partly shown) [I-25], 9 nM.
The compound `COC[C@H](C)n1c(-c2cn3c(C)nnc3c(N)n2)nc2cnc(N3CCOCC3)cc21` [I-26] returned an IC50 of 123 nM.
For the compound `Cc1nnc2c(NC(C)C)nc(-c3nc4cnc(N5CCOC[C@@H]5C)cc4n3C(C)CC(F)(F)F)cn12` (stereo partly shown) [I-27], the midpoint of inhibition, the IC50, lay at 26 nM.
Next, `COC[C@H](C)n1c(-c2cn3c(C)nnc3c(NC(C)C)n2)nc2ccc(N3CCOCC3)nc21` [I-28]: 69 nM.
Under `COCCn1c(-c2cn3c(C)nnc3c(NC(C)C)n2)nc2nc(N3CCOCC3)ccc21` [I-29] stands 49 nM.
